# Measured values published in PubChem BioAssay (NCI).
#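 These data come from cells grown in 96-well plates and exposed to compound for 48 hours at five concentrations. The concentration for 50% growth inhibition is given as GI50. TGI denotes the concentration required for complete inhibition of growth.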
# How the values were obtained:
# Assay in all cases: growth of human tumour cells (NCI), 48 h
# MDA-MB-231 breast = system: MDA-MB-231 breast
# ACHN renal = system: ACHN renal
# M14 melanoma = system: M14 melanoma
# U251 CNS = system: U251 CNS
# MOLT-4 leukemia = system: MOLT-4 leukemia
# SNB-75 CNS = system: SNB-75 CNS
# HOP-92 NSCLC = system: HOP-92 NSCLC
# COLO 205 colon = system: COLO 205 colon
# NCI-H522 lung = system: NCI-H522 lung
# MALME-3M melanoma = system: MALME-3M melanoma
# HS 578T breast = system: HS 578T breast
# SK-OV-3 ovarian = system: SK-OV-3 ovarian
# CAKI-1 renal = system: CAKI-1 renal
# PC-3 prostate = system: PC-3 prostate
# IGROV1 ovarian = system: IGROV1 ovarian
# LOX IMVI melanoma = system: LOX IMVI melanoma
# UACC-257 melanoma = system: UACC-257 melanoma
# EKVX NSCLC = system: EKVX NSCLC
# A498 renal = system: A498 renal
# NCI/ADR-RES ovarian = system: NCI/ADR-RES ovarian
# UACC-62 melanoma = system: UACC-62 melanoma
# SK-MEL-2 melanoma = system: SK-MEL-2 melanoma
# A549 NSCLC = system: A549 NSCLC
# MDA-MB-435 = system: MDA-MB-435
# OVCAR-5 ovarian = system: OVCAR-5 ovarian
# SF-539 CNS = system: SF-539 CNS
# CCRF-CEM leukemia = system: CCRF-CEM leukemia
# SK-MEL-5 melanoma = system: SK-MEL-5 melanoma
# OVCAR-8 ovarian = system: OVCAR-8 ovarian
# SW-620 colon = system: SW-620 colon
# SF-268 CNS = system: SF-268 CNS
# K-562 leukemia = system: K-562 leukemia
# SR leukemia = system: SR leukemia
# NCI-H23 lung = system: NCI-H23 lung
# NCI-H226 lung = system: NCI-H226 lung
# NCI-H460 lung = system: NCI-H460 lung
# TK-10 renal = system: TK-10 renal
# HCT-116 colon = system: HCT-116 colon
# OVCAR-4 ovarian = system: OVCAR-4 ovarian
# SNB-19 CNS = system: SNB-19 CNS
# HCT-15 colon = system: HCT-15 colon
# DU-145 prostate = system: DU-145 prostate
# SN12C renal = system: SN12C renal
# MCF7 breast = system: MCF7 breast
# RPMI-8226 leukemia = system: RPMI-8226 leukemia
# HL-60(TB) leukemia = system: HL-60(TB) leukemia
# KM12 colon = system: KM12 colon
# HCC-2998 colon = system: HCC-2998 colon
# 786-0 renal = system: 786-0 renal
# HT29 colon = system: HT29 colon
# BT-549 breast = system: BT-549 breast
# HOP-62 NSCLC = system: HOP-62 NSCLC
# SK-MEL-28 melanoma = system: SK-MEL-28 melanoma
# SF-295 CNS = system: SF-295 CNS
# UO-31 renal = system: UO-31 renal
# RXF 393 renal = system: RXF 393 renal
structure (smiles),measurement,setting,value
CCN1C(=O)N(CC)C2SC(N/N=C/C=C/c3ccccc3OC)=NC21 (stereo unspecified),GI50,MDA-MB-231 breast,1500 nM
same,TGI,MDA-MB-231 breast,38600 nM
same,GI50,ACHN renal,744 nM
same,TGI,ACHN renal,> 100000 nM
same,GI50,M14 melanoma,313 nM
same,TGI,M14 melanoma,3230 nM
same,GI50,U251 CNS,400 nM
same,TGI,U251 CNS,16900 nM
same,GI50,MOLT-4 leukemia,652 nM
same,TGI,MOLT-4 leukemia,> 100000 nM
same,GI50,SNB-75 CNS,265 nM
same,TGI,SNB-75 CNS,> 100000 nM
same,GI50,HOP-92 NSCLC,266 nM
same,TGI,HOP-92 NSCLC,4300 nM
same,GI50,COLO 205 colon,308 nM
same,TGI,COLO 205 colon,951 nM
same,GI50,NCI-H522 lung,236 nM
same,TGI,NCI-H522 lung,703 nM
same,GI50,MALME-3M melanoma,504 nM
same,TGI,MALME-3M melanoma,> 100000 nM
same,GI50,HS 578T breast,321 nM
same,TGI,HS 578T breast,> 100000 nM
same,GI50,SK-OV-3 ovarian,528 nM
same,TGI,SK-OV-3 ovarian,> 100000 nM
same,GI50,CAKI-1 renal,567 nM
same,TGI,CAKI-1 renal,> 100000 nM
same,GI50,PC-3 prostate,474 nM
same,TGI,PC-3 prostate,> 72500 nM
same,GI50,IGROV1 ovarian,668 nM
same,TGI,IGROV1 ovarian,> 100000 nM
same,GI50,LOX IMVI melanoma,569 nM
same,TGI,LOX IMVI melanoma,26900 nM
same,GI50,UACC-257 melanoma,838 nM
same,TGI,UACC-257 melanoma,> 100000 nM
same,GI50,EKVX NSCLC,1120 nM
same,TGI,EKVX NSCLC,> 100000 nM
same,GI50,A498 renal,188 nM
same,TGI,A498 renal,636 nM
same,GI50,NCI/ADR-RES ovarian,495 nM
same,TGI,NCI/ADR-RES ovarian,> 100000 nM
same,GI50,UACC-62 melanoma,405 nM
same,TGI,UACC-62 melanoma,> 100000 nM
same,GI50,SK-MEL-2 melanoma,672 nM
same,TGI,SK-MEL-2 melanoma,18100 nM
same,GI50,A549 NSCLC,750 nM
same,TGI,A549 NSCLC,> 100000 nM
same,GI50,MDA-MB-435,224 nM
same,TGI,MDA-MB-435,560 nM
same,GI50,OVCAR-5 ovarian,1300 nM
same,TGI,OVCAR-5 ovarian,> 100000 nM
same,GI50,SF-539 CNS,305 nM
same,TGI,SF-539 CNS,2940 nM
same,GI50,CCRF-CEM leukemia,386 nM
same,TGI,CCRF-CEM leukemia,> 100000 nM
same,GI50,SK-MEL-5 melanoma,525 nM
same,TGI,SK-MEL-5 melanoma,9170 nM
same,GI50,OVCAR-8 ovarian,588 nM
same,TGI,OVCAR-8 ovarian,7140 nM
same,GI50,SW-620 colon,383 nM
same,TGI,SW-620 colon,> 100000 nM
same,GI50,SF-268 CNS,2510 nM
same,TGI,SF-268 CNS,> 100000 nM
same,GI50,K-562 leukemia,400 nM
same,TGI,K-562 leukemia,> 100000 nM
same,GI50,SR leukemia,351 nM
same,TGI,SR leukemia,> 100000 nM
same,GI50,NCI-H23 lung,614 nM
same,TGI,NCI-H23 lung,> 100000 nM
same,GI50,NCI-H226 lung,562 nM
same,TGI,NCI-H226 lung,> 100000 nM
same,GI50,NCI-H460 lung,379 nM
same,TGI,NCI-H460 lung,13100 nM
same,GI50,TK-10 renal,19400 nM
same,TGI,TK-10 renal,> 96600 nM
same,GI50,HCT-116 colon,419 nM
same,TGI,HCT-116 colon,> 100000 nM
same,GI50,OVCAR-4 ovarian,20300 nM
same,TGI,OVCAR-4 ovarian,> 100000 nM
same,GI50,SNB-19 CNS,538 nM
same,TGI,SNB-19 CNS,> 100000 nM
same,GI50,HCT-15 colon,428 nM
same,TGI,HCT-15 colon,> 100000 nM
same,GI50,DU-145 prostate,704 nM
same,TGI,DU-145 prostate,> 100000 nM
same,GI50,SN12C renal,991 nM
same,TGI,SN12C renal,> 76600 nM
same,GI50,MCF7 breast,427 nM
same,TGI,MCF7 breast,> 100000 nM
same,GI50,RPMI-8226 leukemia,398 nM
same,TGI,RPMI-8226 leukemia,18200 nM
same,GI50,HL-60(TB) leukemia,299 nM
same,GI50,KM12 colon,431 nM
same,TGI,KM12 colon,> 46300 nM
same,GI50,HCC-2998 colon,853 nM
same,TGI,HCC-2998 colon,13600 nM
same,GI50,786-0 renal,758 nM
same,TGI,786-0 renal,18900 nM
same,GI50,HT29 colon,346 nM
same,TGI,HT29 colon,3820 nM
same,GI50,BT-549 breast,353 nM
same,TGI,BT-549 breast,1410 nM
same,GI50,HOP-62 NSCLC,535 nM
same,TGI,HOP-62 NSCLC,> 100000 nM
same,GI50,SK-MEL-28 melanoma,1510 nM
same,TGI,SK-MEL-28 melanoma,> 100000 nM
same,GI50,SF-295 CNS,371 nM
same,TGI,SF-295 CNS,> 55100 nM
same,GI50,UO-31 renal,730 nM
same,TGI,UO-31 renal,> 100000 nM
same,GI50,RXF 393 renal,350 nM
same,TGI,RXF 393 renal,8900 nM
